# Laboratory results: patent publication US20160030407A1, “Method of Treating Inflammatory Lung Disease” (priority 2010, published 2016)
# How the values were obtained:
# [1] = Treatment of a patient with autism and a seizure disorder; assay type: in vivo, human; conditions: one patient, 1.0 mg three times per day
# From the text: A patient, who was diagnosed with autism and a seizure disorder, had brain surgery and began rehabilitation the following month.
# [2] = tested on: autoimmune thyroiditis; experiment: Autoimmune thyroiditis model (Example 16B): thyroid histopathology; assay type: in vivo, CBA/J mice; conditions: 0.05 mg/ml in drinking water; day 21; p=0.023
# Experimental: (§1) In another experiment, eighteen CBA/J female mice were immunized with mouse thyroglobulin, emulsified in complete Freund's adjuvant, on day 0 and day 7. One group of mice (n=10) drank regular water. […] Mice were sacrificed 21 days after the first immunization to collect the thyroid gland and the blood. The thyroid was analyzed for the presence of infiltrating mononuclear cells. The blood was analyzed for the levels of antibodies against thyroglobulin.
# [3] = tested on: antibodies against thyroglobulin; experiment: Autoimmune thyroiditis model (Example 16B): thyroglobulin antibodies; assay type: in vivo, CBA/J mice; conditions: 0.05 mg/ml in drinking water; day 21
# Experimental: as §1
# [4] = tested on: phosphorylated p65 (NFκB); experiment: p65 phosphorylation in brain after intracranial TNFα; assay type: in vivo, mice (B6/SJL); conditions: mice, 2 mg/kg i.p., normalized to actin
# Experimental: After 5 minutes, mice were intracranially injected with 0.5 mg of TNFα. Mice were euthanized ten minutes after the intracranial injection. The portion of the brain surrounding the intracranial site of injection was collected, and proteins were extracted. Phosphorylation of p65 was measured with an antibody towards phosphorylated p65.
# [5] = tested on: autoimmune thyroiditis; experiment: Experimental Autoimmune Thyroiditis (Example 16A): thyroid histopathology; assay type: in vivo, mice; conditions: 0.05 mg/ml in drinking water (approx. 12.5 mg/kg/day); day 21; p=0.05
# Experimental: (§2) Thyroiditis was induced by injection of thyroglobulin emulsified in complete Freund's adjuvant […]. On days 0 and 7, female mice received subcutaneous injection of 100 μg thyroglobulin (2 injections of 50 μg each). Control mice drank water. […] Mice were sacrificed on day 21.
# Thyroid glands were removed. One lobe was fixed in formalin for histopathology. One lobe was frozen for immunohistochemistry. The extent of lymphocytic infiltration and destruction of the thyroid gland was assessed digitally. Initially, the entire thyroid lobe was examined. […] The final score was expressed as the percent of the thyroid area infiltrated by lymphocytes and damaged. The results are shown graphically in FIG. 42. […] Photomicrographs of hematoxylin- and eosin-stained thyroids from control and anatabine-treated mice are shown in FIG. 43A (control) and FIG. 43B (anatabine-treated).
# [6] = tested on: T cells, antigen presentation; experiment: Experimental Autoimmune Thyroiditis (Example 16A): lymphoid typing by flow cytometry; assay type: in vivo, mice; conditions: p=0.0143
# Experimental: as §2
# Cervical lymph nodes were removed for lymphoid typing by flow cytometry. Spleen and peritoneal macrophages were removed for ex vivo stimulation.
# [7] = tested on: antibodies to PPD and thyroglobulin; experiment: Experimental Autoimmune Thyroiditis (Example 16A): serum antibodies to PPD and thyroglobulin; assay type: in vivo, mice
# Experimental: as §2
# Serum from control and anatabine-treated mice was examined to determine levels of antibodies to a foreign antigen (PPD).
# Levels of antibodies to thyroglobulin were examined on days 7, 14, and 21 after immunization.
# [8] = Single i.v. dose toxicity, 14-day observation: general observations and mortality (incl. nicotine tolerability study); assay type: in vivo, Sprague-Dawley rats
# Experimental: Body weight and food consumption was measured daily for 14 days. On day 15, urine was collected on all surviving animals. The animals were euthanized and bled via cardiac puncture, and blood was collected for analysis. Tissues were collected, weighed, evaluated for gross abnormalities, and stored in 10% neutral-buffered formalin.
# The animals were weighed prior to dosing and received a single i.v. dose via the lateral tail vein of either test compound or vehicle at a volume of 5 mL/kg.
# All animals were observed daily.
compound,measurement,setting,value
"C1=CCC(c2cccnc2)NC1 (racemic) [Anatabine, 1,2,3,6-tetrahydro-[2,3′]bipyridinyl]",cognitive benefits,[1],improved communication and language skills and the ability to focus
same,frequency of seizures,[1]; over 3 weeks,decreased from one per day to approximately one per week
same,frequency and severity of thyroiditis,[2],developed thyroiditis less frequently and of lower severity
same,levels of thyroglobulin antibodies,[3],no effect on the levels of thyroglobulin antibodies
same,p65 phosphorylation in brain,[4],reduced p65 phosphorylation in mouse brain
same,severity of thyroiditis (percent of thyroid area infiltrated and damaged),[5],less severe thyroiditis than control mice
same,activated T cells vs control,[6]; cervical lymph nodes,fewer activated T cells
same,regulatory T cells vs control,[6]; cervical lymph nodes,more regulatory T cells
same,regulatory T cells vs control,"[6]; cervical lymph nodes, listed as anatabine",fewer T regulatory cells than control mice
same,ability to present antigens vs control,[6],a lower ability to present antigens
same,antibodies to PPD vs control,[7]; 0.05 mg/ml in drinking water,no significant difference
same,antibodies to thyroglobulin vs control,[7]; day 7,no significant difference
same,antibodies to thyroglobulin vs control,"[7]; day 14, p=0.086",tended to have lower thyroglobulin antibodies
same,antibodies to thyroglobulin vs control,[7]; day 21,no significant difference
"CN1CCCC1c1cccnc1.O=C(O)C(O)C(O)C(=O)O (single isomer, unassigned; (-)) [Nicotine, (−) Nicotine hydrogen tartrate, reference compound]","time until return to normal, tolerability study","[8]; female rats, nicotine 1.25 and 1.0 mg/kg i.v., post dose",≤ 20 min
same,"observations after dosing, tolerability study","[8]; female rats, single i.v. nicotine 1.25 mg/kg (1) and 1.0 mg/kg (3)",experienced severe tremors upon completion of dosing
same,time until return to normal,"[8]; rat, nicotine 0.75 mg/kg i.v., post dose",15 to 20 min
same,observations after dosing,"[8]; rat, single i.v. 0.75 mg/kg nicotine",experienced tremors upon compound administration
same,mortality,"[8]; rat, single i.v. 0.75 mg/kg nicotine (5 males, 5 females)",One male and two females died post dose
